Reference: ChEMBL document CHEMBL5608213, “Synthesis of furanotriterpenoids from betulin and evaluation of Tyrosyl-DNA phosphodiesterase 1 (Tdp1) inhibitory properties of new semi-synthetic triterpenoids” (Eur J Med Chem, 2024)

Experiments:
[1] = molecular target: Tyrosyl-DNA phosphodiesterase 1 (Homo sapiens, UniProt Q9NUW8); test: Inhibition of Tdp1 (unknown origin) using 5'-[FAM]AACGTCAGGGTCTTCC[BHQ1]-3' as substrate measured every 55 sec by fluorescence based analysis
[2] = tested on: MCF7; test: Cytotoxicity against human MCF7 cells incubated for 72 hrs by MTT assay; assay type: functional
[3] = tested on: HepG2; test: Cytotoxicity against human HepG2 cells incubated for 72 hrs by MTT assay; assay type: functional
[4] = tested on: PC-3; test: Cytotoxicity against human PC-3 cells incubated for 72 hrs by MTT assay; assay type: functional
[5] = tested on: A549; test: Cytotoxicity against human A549 cells incubated for 72 hrs by MTT assay; assay type: functional
[6] = tested on: RD; test: Cytotoxicity against human RD cells incubated for 72 hrs by MTT assay; assay type: functional
[7] = Cytotoxicity against human HeLa-V cells incubated for 72 hrs by MTT assay; assay type: functional
[8] = Cytotoxicity against human MCF-10A cells incubated for 72 hrs by MTT assay; assay type: toxicity, cell-based
[9] = Cytotoxicity against HEK293 cells incubated for 72 hrs by MTT assay; assay type: toxicity, cell-based; details: human
[10] = tested on: MDA-MB-453; test: Cytotoxicity against human MDA-MB-453 cells incubated for 72 hrs by MTT assay; assay type: functional
[11] = Cytotoxicity against human Mel-MS cells incubated for 72 hrs by MTT assay; assay type: functional
[12] = tested on: MDA-MB-231; test: Cytotoxicity against human MDA-MB-231 cells incubated for 72 hrs by MTT assay; assay type: functional
[13] = tested on: HCT-116; test: Cytotoxicity against human HCT-116 cells incubated for 72 hrs by MTT assay; assay type: functional

Chain of Tyrosyl-DNA phosphodiesterase 1 (Q9NUW8 whole entry): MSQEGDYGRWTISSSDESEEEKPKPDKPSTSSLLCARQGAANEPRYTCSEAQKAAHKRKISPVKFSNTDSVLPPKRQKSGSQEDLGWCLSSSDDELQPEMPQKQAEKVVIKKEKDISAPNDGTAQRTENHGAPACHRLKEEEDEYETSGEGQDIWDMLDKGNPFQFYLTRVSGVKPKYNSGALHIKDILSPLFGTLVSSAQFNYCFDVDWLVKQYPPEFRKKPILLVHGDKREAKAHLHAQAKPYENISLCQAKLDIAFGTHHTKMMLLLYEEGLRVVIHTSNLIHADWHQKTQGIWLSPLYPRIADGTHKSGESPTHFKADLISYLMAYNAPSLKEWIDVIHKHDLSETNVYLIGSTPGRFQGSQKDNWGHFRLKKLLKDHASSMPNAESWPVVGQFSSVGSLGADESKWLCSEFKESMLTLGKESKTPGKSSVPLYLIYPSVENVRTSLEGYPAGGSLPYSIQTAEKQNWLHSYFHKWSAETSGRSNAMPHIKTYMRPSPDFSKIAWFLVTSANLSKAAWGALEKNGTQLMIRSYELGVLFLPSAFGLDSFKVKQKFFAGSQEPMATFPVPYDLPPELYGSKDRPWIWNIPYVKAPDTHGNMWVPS

Row | IC50 [1] [µM] | SMILES | CC50 [2] [µM] | CC50 [3] [µM] | CC50 [4] [µM] | CC50 [5] [µM] | CC50 [6] [µM] | CC50 [7] [µM] | CC50 at 72 h [8] [µM] | CC50 at 72 h [9] [µM] | CC50 [10] [µM] | CC50 [11] [µM] | CC50 [12] [µM] | CC50 [13] [µM]
1 | 12.1 | CC(C)[C@@H]1CC[C@]2(COC(=O)c3ccccc3)CC[C@]3(C)[C@H](CC[C@@H]4[C@@]5(C)O[C@H](CC#N)C(C)(C)[C@@H]5CC[C@]43C)[C@@H]12 | > 100 | > 100 | > 100 | > 100 | > 100 | > 100 | > 100 | > 100 | > 100 | > 100 | > 100 | > 100
2 | 3 | CC(C)[C@@H]1CC[C@]2(COC(=O)c3ccccc3)CC[C@]3(C)[C@H](CC[C@@H]4[C@@]5(C)C(=O)[C@H]6O[C@H]6C(C)(C)[C@@H]5CC[C@]43C)[C@@H]12 | > 100 | > 100 | > 100 | > 100 | > 100 | > 100 | > 100 | > 100 | > 100 | > 100 | > 100 | > 100
3 | 9 | CC(C)[C@@H]1CC[C@]2(COC(=O)c3ccccc3)CC[C@]3(C)[C@H](CC[C@@H]4[C@@]5(C)[C@@H](O)C=CC(C)(C)[C@@H]5CC[C@]43C)[C@@H]12 | > 100 | > 100 | > 100 | > 100 | > 100 | > 100 | > 100 | > 100 | > 100 | > 100 | > 100 | > 100
4 | 5.1 | CC(C)[C@@H]1CC[C@]2(COC(=O)c3ccccc3)CC[C@]3(C)[C@H](CC[C@@H]4[C@@]5(C)[C@@H](O)[C@H]6O[C@H]6C(C)(C)[C@@H]5CC[C@]43C)[C@@H]12 | > 100 | > 100 | > 100 | > 100 | > 100 | > 100 | > 100 | > 100 | > 100 | > 100 | > 100 | > 100
5 | 8 | C=C1[C@H]2CC[C@@H]3[C@H]4[C@H](C(C)C)CC[C@]4(COC(=O)c4ccccc4)CC[C@@]3(C)[C@]2(C)CC[C@@H]1C(C)(C)[C@@H]1O[C@H]1C#N | > 100 | > 100 | > 100 | > 100 | > 100 | > 100 | > 100 | > 100 | > 100 | > 100 | > 100 | > 100
6 | 2.9 | CC(C)[C@@H]1CC[C@]2(COC(=O)c3ccccc3)CC[C@]3(C)[C@H](CC[C@@H]4[C@@]5(C)/C(=N/O)C[C@@H](O)C(C)(C)[C@@H]5CC[C@]43C)[C@@H]12 | > 100 | > 100 | > 100 | 57.7 | > 100 | > 100 | > 100 | > 100 | > 100 | > 100 | > 100 | > 100

Row | SMILES | IC50 [1] [µM] | CC50 [2] [µM] | CC50 [3] [µM] | CC50 [4] [µM] | CC50 [5] [µM] | CC50 [6] [µM] | CC50 [7] [µM] | CC50 at 72 h [8] [µM] | CC50 at 72 h [9] [µM] | CC50 [10] [µM] | CC50 [11] [µM] | CC50 [12] [µM] | CC50 [13] [µM]
7 | CC1(C)CC[C@]23CC[C@]4(C)[C@H](CC[C@@H]5[C@@]6(C)O[C@@H](CC#N)C(C)(C)[C@@H]6CC[C@]54C)[C@H]2[C@H]1OC3 | 8 | – | – | – | – | – | – | – | – | – | – | – | –
8 | CC1(C)CC[C@]23CC[C@]4(C)C(CC[C@@H]5C(=O)C(C(C)(C)[C@H](CC#N)OC(=O)Cl)CC[C@]54C)[C@H]2[C@H]1OC3 (stereo not given in full) | > 100 | > 100 | > 100 | > 100 | > 100 | > 100 | > 100 | > 100 | > 100 | > 100 | > 100 | > 100 | > 100
9 | CC1(C)CC[C@]23CC[C@]4(C)[C@H](CC[C@@H]5[C@@]6(C)O[C@H](CC#N)C(C)(C)[C@@H]6CC[C@]54C)[C@H]2[C@H]1OC3 | 3.59 | 84.9 | > 100 | > 100 | 34 | > 100 | > 100 | > 100 | > 100 | > 100 | > 100 | > 100 | 90.3
